Experimental data taken from ChEMBL document CHEMBL1909046, “DrugMatrix in vitro pharmacology data”.
pIC50: −log10 of the molar value.

How the values were obtained:
[1] = DRUGMATRIX: beta-Lactamase enzyme inhibition (substrate: Nitrocefin); design: species or system Bacillus cereus; details: Not Active = under 50% inhibition at 10 µM
[2] = biological target: Vascular endothelial growth factor receptor 1 (Homo sapiens, UniProt P17948); format: cell-based; details: huvec; further: in other assays of this panel Not Active means under 50% inhibition at 10 µM
Sequence of Vascular endothelial growth factor receptor 1 (P17948 whole entry): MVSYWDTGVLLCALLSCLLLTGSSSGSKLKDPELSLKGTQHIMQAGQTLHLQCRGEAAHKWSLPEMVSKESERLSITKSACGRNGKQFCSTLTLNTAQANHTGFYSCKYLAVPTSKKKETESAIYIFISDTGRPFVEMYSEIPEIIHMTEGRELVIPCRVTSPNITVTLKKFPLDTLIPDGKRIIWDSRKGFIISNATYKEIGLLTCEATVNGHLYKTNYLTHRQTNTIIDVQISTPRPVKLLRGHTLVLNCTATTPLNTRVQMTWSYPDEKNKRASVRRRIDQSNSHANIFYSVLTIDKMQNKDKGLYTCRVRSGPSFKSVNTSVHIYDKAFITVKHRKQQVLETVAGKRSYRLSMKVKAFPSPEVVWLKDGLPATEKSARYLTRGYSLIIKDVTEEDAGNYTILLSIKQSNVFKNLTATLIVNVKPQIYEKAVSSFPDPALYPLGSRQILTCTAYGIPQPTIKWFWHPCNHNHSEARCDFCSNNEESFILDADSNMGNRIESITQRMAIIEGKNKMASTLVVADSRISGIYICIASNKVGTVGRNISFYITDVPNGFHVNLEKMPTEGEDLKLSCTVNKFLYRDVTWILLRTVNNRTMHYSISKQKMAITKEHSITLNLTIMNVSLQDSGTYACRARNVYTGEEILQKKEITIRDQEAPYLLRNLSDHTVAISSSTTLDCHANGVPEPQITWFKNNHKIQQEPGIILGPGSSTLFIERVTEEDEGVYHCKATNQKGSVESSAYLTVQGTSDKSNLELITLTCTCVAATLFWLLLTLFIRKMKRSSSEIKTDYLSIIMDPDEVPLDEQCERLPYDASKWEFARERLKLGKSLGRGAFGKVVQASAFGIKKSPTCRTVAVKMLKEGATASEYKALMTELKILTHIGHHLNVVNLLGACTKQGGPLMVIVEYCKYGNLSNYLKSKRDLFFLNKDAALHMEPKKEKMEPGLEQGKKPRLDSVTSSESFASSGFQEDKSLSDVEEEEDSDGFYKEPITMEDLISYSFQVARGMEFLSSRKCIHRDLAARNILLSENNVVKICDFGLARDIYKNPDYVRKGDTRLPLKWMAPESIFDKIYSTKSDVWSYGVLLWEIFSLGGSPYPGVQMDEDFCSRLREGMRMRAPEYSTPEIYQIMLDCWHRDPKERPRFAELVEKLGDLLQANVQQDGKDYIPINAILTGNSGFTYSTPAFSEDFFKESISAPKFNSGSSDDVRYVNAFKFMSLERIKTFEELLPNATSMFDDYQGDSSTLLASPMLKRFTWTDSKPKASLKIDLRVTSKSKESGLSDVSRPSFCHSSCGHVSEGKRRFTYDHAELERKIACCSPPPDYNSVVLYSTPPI

[3] = biological target: T1, Vasoactive intestinal polypeptide receptor 1 (Homo sapiens, UniProt P32241); format: cell membranes, Membrane; details: ht-29; further: in other assays of this panel Not Active means under 50% inhibition at 10 µM
T1 sequence (P32241 whole entry): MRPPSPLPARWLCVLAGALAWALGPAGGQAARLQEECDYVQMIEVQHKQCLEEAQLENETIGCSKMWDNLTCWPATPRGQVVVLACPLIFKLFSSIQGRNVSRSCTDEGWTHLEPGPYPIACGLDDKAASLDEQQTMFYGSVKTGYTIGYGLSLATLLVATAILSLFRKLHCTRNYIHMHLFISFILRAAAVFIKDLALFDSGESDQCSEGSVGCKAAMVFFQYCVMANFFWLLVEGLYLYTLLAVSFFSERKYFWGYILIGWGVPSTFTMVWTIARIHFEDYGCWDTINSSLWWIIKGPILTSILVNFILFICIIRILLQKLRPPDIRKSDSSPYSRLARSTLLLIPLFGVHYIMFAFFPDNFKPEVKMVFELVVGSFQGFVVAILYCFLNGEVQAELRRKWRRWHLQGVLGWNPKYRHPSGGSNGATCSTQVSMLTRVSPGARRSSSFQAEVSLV

D(1A) dopamine receptor = D(1A) dopamine receptor (Homo sapiens, UniProt P21728); assay: DRUGMATRIX: Dopamine D1 radioligand binding (ligand: [3H] SCH-23390); format: cell membranes, CHO, Membrane; details: cho; Not Active = under 50% inhibition at 10 µM
Sequence of D(1A) dopamine receptor (P21728 whole entry): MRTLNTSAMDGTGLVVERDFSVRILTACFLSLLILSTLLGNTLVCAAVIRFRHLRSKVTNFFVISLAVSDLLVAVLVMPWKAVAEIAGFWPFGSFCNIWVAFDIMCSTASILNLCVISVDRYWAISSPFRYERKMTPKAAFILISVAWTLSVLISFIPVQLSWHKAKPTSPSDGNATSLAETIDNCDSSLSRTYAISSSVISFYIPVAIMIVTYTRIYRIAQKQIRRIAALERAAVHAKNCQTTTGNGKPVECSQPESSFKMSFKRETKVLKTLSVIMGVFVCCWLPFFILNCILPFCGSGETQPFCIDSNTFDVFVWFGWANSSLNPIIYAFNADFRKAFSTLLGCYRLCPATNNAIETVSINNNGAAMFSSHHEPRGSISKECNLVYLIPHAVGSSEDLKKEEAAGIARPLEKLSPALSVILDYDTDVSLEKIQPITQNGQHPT

[4] = DRUGMATRIX: Glutamate, AMPA radioligand binding (ligand: [3H] AMPA); format: cell membranes, Rattus norvegicus, Wistar, Cerebral cortex, Membrane; details: Not Active = under 50% inhibition at 10 µM
Glycine receptor = Glycine receptor (Rattus norvegicus, UniProt P22771+P24524+P07727+P20781); format: cell membranes, Wistar, Spinal cord, Membrane; further: in other assays of this panel Not Active means under 50% inhibition at 10 µM
[5] = biological target: Kappa-type opioid receptor (Homo sapiens, UniProt P41145); assay: DRUGMATRIX: Opiate kappa (OP2, KOP) radioligand binding (ligand: [3H] Diprenorphine); format: cell membranes, HEK293, Membrane; details: hek293; Not Active = under 50% inhibition at 10 µM
Sequence of Kappa-type opioid receptor (P41145 whole entry): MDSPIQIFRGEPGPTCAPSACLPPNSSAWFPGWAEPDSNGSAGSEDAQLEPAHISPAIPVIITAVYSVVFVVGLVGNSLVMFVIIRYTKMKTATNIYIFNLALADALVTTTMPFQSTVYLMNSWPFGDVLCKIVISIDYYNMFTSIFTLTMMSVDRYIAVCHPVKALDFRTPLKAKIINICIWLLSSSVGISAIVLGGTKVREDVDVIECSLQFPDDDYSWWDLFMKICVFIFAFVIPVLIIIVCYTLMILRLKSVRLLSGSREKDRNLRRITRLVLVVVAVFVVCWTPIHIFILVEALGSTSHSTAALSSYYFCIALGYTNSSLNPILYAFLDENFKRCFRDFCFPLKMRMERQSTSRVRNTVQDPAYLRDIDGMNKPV

Neutrophil elastase = biological target: T2, Neutrophil elastase (Homo sapiens, UniProt P08246); format: tissue-based;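 further: inhibition of neutrophil elastase enzyme activity, measured with a p-nitroanilide-linked peptide substrate; in other assays of this panel Not Active means under 50% inhibition at 10 µM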
T2 sequence (P08246 whole entry): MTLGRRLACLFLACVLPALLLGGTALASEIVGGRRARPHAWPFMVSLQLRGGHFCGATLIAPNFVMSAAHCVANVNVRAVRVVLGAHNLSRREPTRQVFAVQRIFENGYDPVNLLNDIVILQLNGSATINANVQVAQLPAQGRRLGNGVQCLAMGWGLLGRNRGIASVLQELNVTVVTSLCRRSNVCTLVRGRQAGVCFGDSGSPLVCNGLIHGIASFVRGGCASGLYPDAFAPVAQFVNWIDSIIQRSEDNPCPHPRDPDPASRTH

[6] = biological target: Mitogen-activated protein kinase 14 (Homo sapiens, UniProt Q16539); design: species or system Escherichia coli
Sequence of Mitogen-activated protein kinase 14 (Q16539 whole entry): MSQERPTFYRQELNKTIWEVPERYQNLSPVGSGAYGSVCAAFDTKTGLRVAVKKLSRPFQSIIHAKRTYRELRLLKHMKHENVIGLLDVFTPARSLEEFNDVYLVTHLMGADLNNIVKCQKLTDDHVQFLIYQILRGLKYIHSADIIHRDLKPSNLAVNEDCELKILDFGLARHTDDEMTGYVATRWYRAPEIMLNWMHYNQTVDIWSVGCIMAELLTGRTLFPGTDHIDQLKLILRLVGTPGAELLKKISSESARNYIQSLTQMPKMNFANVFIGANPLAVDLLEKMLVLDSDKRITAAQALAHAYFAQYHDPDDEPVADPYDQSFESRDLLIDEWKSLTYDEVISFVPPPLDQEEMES

[7] = biological target: Receptor tyrosine-protein kinase erbB-2 (Homo sapiens, UniProt P04626); assay: biochemical; format: cell-based, Insect cells; details: for IC50: insect cells
Sequence of Receptor tyrosine-protein kinase erbB-2 (P04626 whole entry): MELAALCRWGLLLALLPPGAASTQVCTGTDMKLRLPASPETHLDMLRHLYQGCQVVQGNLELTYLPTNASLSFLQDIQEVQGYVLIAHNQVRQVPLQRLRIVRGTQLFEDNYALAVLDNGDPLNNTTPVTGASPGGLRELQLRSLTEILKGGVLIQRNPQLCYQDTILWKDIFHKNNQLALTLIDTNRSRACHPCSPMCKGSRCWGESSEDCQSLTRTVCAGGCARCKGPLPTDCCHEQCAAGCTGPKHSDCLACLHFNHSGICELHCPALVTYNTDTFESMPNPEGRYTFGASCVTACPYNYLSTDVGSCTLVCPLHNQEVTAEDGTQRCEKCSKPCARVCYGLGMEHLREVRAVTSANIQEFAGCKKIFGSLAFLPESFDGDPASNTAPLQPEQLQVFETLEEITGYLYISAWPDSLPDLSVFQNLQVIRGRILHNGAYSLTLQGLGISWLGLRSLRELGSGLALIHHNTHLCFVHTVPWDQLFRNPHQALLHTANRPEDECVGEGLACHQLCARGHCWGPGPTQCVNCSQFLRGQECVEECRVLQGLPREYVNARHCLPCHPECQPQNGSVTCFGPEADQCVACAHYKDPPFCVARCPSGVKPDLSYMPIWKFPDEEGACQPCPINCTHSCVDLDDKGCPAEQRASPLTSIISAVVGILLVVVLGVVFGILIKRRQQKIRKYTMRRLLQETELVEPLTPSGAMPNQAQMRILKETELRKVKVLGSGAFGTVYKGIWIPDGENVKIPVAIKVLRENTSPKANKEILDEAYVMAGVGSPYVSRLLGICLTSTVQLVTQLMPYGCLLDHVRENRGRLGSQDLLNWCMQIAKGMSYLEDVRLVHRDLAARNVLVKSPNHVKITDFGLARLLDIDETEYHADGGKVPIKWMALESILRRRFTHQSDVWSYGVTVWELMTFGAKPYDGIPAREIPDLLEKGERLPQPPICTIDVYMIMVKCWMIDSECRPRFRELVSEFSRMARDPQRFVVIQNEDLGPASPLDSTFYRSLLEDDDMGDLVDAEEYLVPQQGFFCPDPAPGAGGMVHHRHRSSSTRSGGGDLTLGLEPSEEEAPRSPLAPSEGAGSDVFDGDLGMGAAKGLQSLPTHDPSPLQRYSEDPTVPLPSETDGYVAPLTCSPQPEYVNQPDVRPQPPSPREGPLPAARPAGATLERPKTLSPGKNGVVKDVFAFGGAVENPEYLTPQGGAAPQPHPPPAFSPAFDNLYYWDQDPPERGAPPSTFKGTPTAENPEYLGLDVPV

Cytochrome P450 2A6 = biological target: T3, Cytochrome P450 2A6 (Homo sapiens, UniProt P11509); details: bti-tn-5b1-4; further: in other assays of this panel Not Active means under 50% inhibition at 10 µM
T3 sequence (P11509 whole entry): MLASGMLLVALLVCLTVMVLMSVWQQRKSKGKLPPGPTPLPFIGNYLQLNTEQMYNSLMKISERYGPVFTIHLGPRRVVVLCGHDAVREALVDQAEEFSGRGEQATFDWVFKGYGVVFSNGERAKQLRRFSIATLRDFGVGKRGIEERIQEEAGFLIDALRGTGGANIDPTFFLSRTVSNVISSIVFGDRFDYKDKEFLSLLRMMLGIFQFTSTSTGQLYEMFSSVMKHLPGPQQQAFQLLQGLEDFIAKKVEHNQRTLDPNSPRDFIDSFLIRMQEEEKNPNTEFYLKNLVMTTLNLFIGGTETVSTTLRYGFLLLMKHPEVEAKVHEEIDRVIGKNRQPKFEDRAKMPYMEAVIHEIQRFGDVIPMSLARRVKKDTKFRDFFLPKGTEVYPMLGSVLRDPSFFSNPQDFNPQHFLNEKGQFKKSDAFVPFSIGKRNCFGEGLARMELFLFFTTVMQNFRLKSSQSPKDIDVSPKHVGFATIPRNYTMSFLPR

Structure (SMILES)	IC50 [1]	Ki [1]	IC50 [2]	IC50 [3]	IC50 (D(1A) dopamine receptor)	IC50 [4]	Ki [4]	IC50 (Glycine receptor)	IC50 [5]	IC50 (Neutrophil elastase)	IC50 [6]	IC50 [7]	pIC50 ([1]; read-out: IC50)	pIC50 ([7]; read-out: IC50)	IC50 (Cytochrome P450 2A6)	Ki (Cytochrome P450 2A6)
CC(C)NC[C@H](O)COc1cccc2[nH]ccc12	Not Active	Not Active	Not Active	Not Active	Not Active	Not Active	Not Active	Not Active	Not Active	Not Active	Not Active	Not Active	–	–	–	–
c1ccc2c(c1)cc1ccc3cccc4ccc2c1c34	–	–	Not Active	Not Active	Not Active	Not Active	Not Active	Not Active	–	Not Active	Not Active	–	4.68	4.38	Not Active	Not Active
CCCCCCCCCc1ccc(O)cc1 [4-NONYLPHENOL]	Not Active	Not Active	Not Active	Not Active	Not Active	Not Active	Not Active	Not Active	–	Not Active	Not Active	Not Active	–	–	Not Active	Not Active
COc1ccc2c(c1)c(CC(=O)OCC(=O)O)c(C)n2C(=O)c1ccc(Cl)cc1 [ACEMETACIN]	Not Active	Not Active	Not Active	Not Active	Not Active	Not Active	Not Active	Not Active	Not Active	Not Active	Not Active	Not Active	–	–	Not Active	Not Active
CCCSc1ccc2nc(NC(=O)OC)[nH]c2c1 [ALBENDAZOLE]	Not Active	Not Active	Not Active	Not Active	Not Active	Not Active	Not Active	Not Active	Not Active	Not Active	Not Active	Not Active	–	–	Not Active	Not Active
Cc1[nH]cnc1CN1CCc2c(c3ccccc3n2C)C1=O [ALOSETRON]	Not Active	Not Active	Not Active	Not Active	Not Active	Not Active	Not Active	Not Active	Not Active	Not Active	Not Active	Not Active	–	–	Not Active	Not Active
CC1(C)S[C@@H]2[C@H](NC(=O)[C@H](N)c3ccc(O)cc3)C(=O)N2[C@H]1C(=O)O [AMOXICILLIN]	Not Active	Not Active	Not Active	Not Active	Not Active	Not Active	Not Active	Not Active	Not Active	Not Active	Not Active	Not Active	–	–	Not Active	Not Active
N=C(N)NCCCCNC(=N)N.O=S(=O)(O)O [ARCAINE SULFATE]	Not Active	Not Active	Not Active	Not Active	Not Active	Not Active	Not Active	Not Active	Not Active	Not Active	Not Active	Not Active	–	–	Not Active	Not Active
CCOC(=O)c1ccc(N)cc1 [BENZOCAINE]	Not Active	Not Active	Not Active	Not Active	Not Active	Not Active	Not Active	Not Active	Not Active	Not Active	Not Active	Not Active	–	–	Not Active	Not Active
Cc1ccccc1N1CCN(CCc2nnc3n2CCCC3)CC1 [DAPIPRAZOLE]	Not Active	Not Active	Not Active	Not Active	Not Active	Not Active	Not Active	Not Active	Not Active	Not Active	Not Active	Not Active	–	–	Not Active	Not Active
CC(=O)OCC(=O)[C@@]1(OC(C)=O)[C@@H](C)C[C@H]2[C@@H]3C[C@H](F)C4=CC(=O)C=C[C@]4(C)[C@@]3(F)[C@@H](O)C[C@@]21C [DIFLORASONE DIACETATE]	Not Active	Not Active	Not Active	Not Active	Not Active	Not Active	Not Active	Not Active	Not Active	Not Active	Not Active	Not Active	–	–	Not Active	Not Active
COc1ccc([C@@H]2Sc3ccccc3N(CCN(C)C)C(=O)[C@@H]2OC(C)=O)cc1 [DILTIAZEM]	Not Active	Not Active	Not Active	Not Active	Not Active	Not Active	Not Active	Not Active	Not Active	Not Active	Not Active	Not Active	–	–	Not Active	Not Active
CCc1ccc(C(=O)C(C)CN2CCCCC2)cc1 (centres undefined) [EPERISONE]	Not Active	Not Active	Not Active	Not Active	Not Active	Not Active	Not Active	Not Active	Not Active	Not Active	Not Active	Not Active	–	–	Not Active	Not Active
O=P1(NCCCl)OCCCN1CCCl (centres undefined) [IFOSFAMIDE]	Not Active	Not Active	Not Active	Not Active	Not Active	Not Active	Not Active	Not Active	Not Active	Not Active	Not Active	Not Active	–	–	–	–
